Structures can show the parent of a compound that is named as a salt.

From patent US8993594B2, “Isoquinolin-1(2H)-one derivatives as PARP-1 inhibitors” (Nerviano Medical Sciences S.R.L., priority 2009, dated 2015) come the findings set out here.

The target in data set [1] is PARP-1 FL (Homo sapiens, UniProt P09874). Nature of the data set: Fluorescence polarization probe displacement assay. It counts as binding. To be noted: for DC50: half maximal displacement concentration. In general terms: Polarisation of emitted light reports the rotation of a fluorescent probe.
Procedure: (§1) Affinity of the tested compounds and their selectivity with respect to the different PARP isoforms of interest was quantified in a displacement assay.
(§2) In all of the experiments, the polarization signal was measured using a Saphire2 plate reader (Tecan). Data analysis was performed using Dynafit software. In particular, titration data were fitted to the following equilibria: Enzyme+probe <==> Complex Enzyme-probe, while displacement data were fitted to the following equilibria: Enzyme+probe <==> Complex Enzyme-probe, Enzyme+Compound <==> Complex Enzyme-Compound, whereby binding of probe and compound on the enzyme are mutually exclusive (pure competitive mechanism). Displacement data were also fitted using Excel spreadsheet (Microsoft Inc. Seattle, USA) to a four parameter logistic model (4PL), or Hill-Slope model to calculate DC50s where the DC50 value represents the compound concentration at which the polarization signal is diminished by 50% compared to untreated controls.
(§3) In agreement, affinity binding constants (KD) were determined by fitting with a pure competitive mechanism. KD values are the average of three independent experiments.
Data set [2] has as its target PARP-2 FL (Homo sapiens, UniProt Q9UGN5). The data set is described as follows: Fluorescence polarization probe displacement assay. Conditions: for DC50: compound P1 as the probe. It counts as binding.
Procedure: as §1, §2, §3
Data set [3] has as its target T1, PARP-3 FL (Homo sapiens, UniProt Q9Y6F1).
T1 sequence (Q9Y6F1 1-533): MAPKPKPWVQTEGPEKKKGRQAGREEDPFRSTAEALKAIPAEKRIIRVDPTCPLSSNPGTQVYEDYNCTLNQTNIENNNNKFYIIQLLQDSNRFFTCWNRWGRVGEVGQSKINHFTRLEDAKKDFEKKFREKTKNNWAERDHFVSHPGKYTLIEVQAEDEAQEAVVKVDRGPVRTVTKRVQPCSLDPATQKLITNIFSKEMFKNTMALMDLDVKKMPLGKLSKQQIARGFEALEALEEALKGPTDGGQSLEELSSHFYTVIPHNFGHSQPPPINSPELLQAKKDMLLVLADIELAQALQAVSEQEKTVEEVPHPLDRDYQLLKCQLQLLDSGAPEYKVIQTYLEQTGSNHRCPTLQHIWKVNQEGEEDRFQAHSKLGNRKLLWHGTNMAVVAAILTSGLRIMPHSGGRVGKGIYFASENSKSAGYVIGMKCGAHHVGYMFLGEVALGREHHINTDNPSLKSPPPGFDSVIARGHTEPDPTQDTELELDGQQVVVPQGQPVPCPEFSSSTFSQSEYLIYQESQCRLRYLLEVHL
Nature of the data set: Fluorescence polarization probe displacement assay. The format is binding. Conditions: compound P1 as the probe.
Procedure: as §1, §2, §3

For data set [4], the system named is hydrogen peroxide induced PAR formation in HeLa cells. The data set is described as follows: Cellular PAR assay (inhibition of hydrogen peroxide induced PAR formation). Conditions: Homo sapiens, 0.1 mM hydrogen peroxide 15 min. It counts as cell-based.
Procedure: Compounds potencies were evaluated by measuring the inhibition of poly (ADP-ribose) (PAR) chains formation as a marker for PARP-1 inhibition.
Cellular activity of PARP-1 inhibitors was assessed by measuring the inhibition of the hydrogen peroxide induced PAR formation in HeLa cells (ECACC). Cellular PAR levels were measured by immunocytochemistry and quantified using an ArrayScan vTi instrument (Cellomics Thermo Scientific).
Studies were performed as follows: 6000 cells/well were seeded in 96 well plates (Perkin Elmer) in MEM/10% FCS and incubated for 24 hours at 37° C., 5% carbon dioxide. Test compounds were then added at the required concentration for 30′. […] Concentration curves were prepared in MEM/10% FCS from compound stocks in DMSO and final DMSO concentration was 0.002% (v/v). Duplicate wells for each concentration point were prepared with a typical highest compound concentration of 20 μM and serial dilution 1:3. […] Non-specific binding sites were blocked by incubating wells for 30 min in PBS containing 5% (w/v) FBS 0.05% tween20. […] After washing further 3 times in PBS, cellular PAR immunoreactivity was assessed using the ArrayScan vTi instrument, with a Zeiss 10×0.5 N.A. objective, and applying the Cytotoxicity.V3 algorithm (Cellomics/Thermo Fisher) with a XF100 filter. At least 10 fields, corresponding to at least 900 cells, were read for each well.
The following formula is used: IC50=Bottom+(Top−Bottom)/(1+10^((Log EC50−X))); X is the logarithm of concentration. IC50 is the response; IC50 starts at Bottom and goes to Top with a sigmoid shape.
The nature of data set [5]: Pharmacokinetics and oral bioavailability in the mouse. To be noted: for F on AUC: 10 mg/kg, ratio of oral to IV dose-normalized plasma AUC; for clearance / Vd / AUC / half-life: male, Balb Nu/Nu, plasma, mean value; for clearance / Vd: 10 mg/kg intravenous bolus; for clearance: read-out: CL(IV bolus); for Vd: read-out: Vdss (IV bolus); for AUC / half-life: 10 mg/kg oral; for half-life: read-out: T½ (oral) (converted). It counts as in vivo.
Procedure: The compounds were formulated in 10% tween 80/dextrose for intravenous bolus administration while oral administrations were performed using the compounds formulated in 0.5% methylcellulose. A single administration at the dose of 10 mg/kg was given and three male animals for each route were used. […] Plasma samples were prepared by plasma proteins precipitation adding 200 µl of methanol to 10 µl of plasma in a 96 well plate. […] The supernatant was considered as final extract and injected onto the LC-MS-MS system (HPLC system: Hewlett Packard 1100 series using Atlantis HILIC Silica 50*2.1 mm 5.0 μM analytical column; MS instrument: Perkin Elmer SCIEX API 2000 and ionization performed with Turbo Ion Spray in positive ion mode). Lower limit of quantification is 5.0 ng/ml, upper limit of quantification is 10000 ng/ml. […] Non-compartmental method (linear trapezoidal rule and linear regression analysis of natural log-transformed plasma concentrations vs. time data) was used. After intravenous dosing, C0 was set equal to C0.083, Absolute bioavailability (F) was calculated from the ratio of average oral to IV (intravenous) dose-normalized plasma AUC (area under curve) values.

PARP-2 FL, sequence (Q9UGN5 whole entry): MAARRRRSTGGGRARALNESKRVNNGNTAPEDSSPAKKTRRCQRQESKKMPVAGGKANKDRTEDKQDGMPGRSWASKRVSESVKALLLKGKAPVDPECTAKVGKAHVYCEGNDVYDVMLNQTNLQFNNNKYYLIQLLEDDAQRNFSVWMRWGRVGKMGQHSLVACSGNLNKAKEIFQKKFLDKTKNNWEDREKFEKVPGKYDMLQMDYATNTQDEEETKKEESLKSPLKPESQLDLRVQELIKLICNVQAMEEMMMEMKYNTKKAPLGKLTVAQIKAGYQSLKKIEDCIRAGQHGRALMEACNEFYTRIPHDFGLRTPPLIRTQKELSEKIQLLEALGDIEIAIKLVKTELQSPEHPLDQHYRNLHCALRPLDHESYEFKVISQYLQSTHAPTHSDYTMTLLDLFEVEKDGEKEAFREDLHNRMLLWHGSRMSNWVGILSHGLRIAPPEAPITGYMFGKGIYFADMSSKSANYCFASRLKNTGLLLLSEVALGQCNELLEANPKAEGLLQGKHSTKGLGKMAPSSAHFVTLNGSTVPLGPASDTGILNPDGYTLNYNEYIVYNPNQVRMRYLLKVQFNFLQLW
PARP-1 FL, sequence (P09874 whole entry): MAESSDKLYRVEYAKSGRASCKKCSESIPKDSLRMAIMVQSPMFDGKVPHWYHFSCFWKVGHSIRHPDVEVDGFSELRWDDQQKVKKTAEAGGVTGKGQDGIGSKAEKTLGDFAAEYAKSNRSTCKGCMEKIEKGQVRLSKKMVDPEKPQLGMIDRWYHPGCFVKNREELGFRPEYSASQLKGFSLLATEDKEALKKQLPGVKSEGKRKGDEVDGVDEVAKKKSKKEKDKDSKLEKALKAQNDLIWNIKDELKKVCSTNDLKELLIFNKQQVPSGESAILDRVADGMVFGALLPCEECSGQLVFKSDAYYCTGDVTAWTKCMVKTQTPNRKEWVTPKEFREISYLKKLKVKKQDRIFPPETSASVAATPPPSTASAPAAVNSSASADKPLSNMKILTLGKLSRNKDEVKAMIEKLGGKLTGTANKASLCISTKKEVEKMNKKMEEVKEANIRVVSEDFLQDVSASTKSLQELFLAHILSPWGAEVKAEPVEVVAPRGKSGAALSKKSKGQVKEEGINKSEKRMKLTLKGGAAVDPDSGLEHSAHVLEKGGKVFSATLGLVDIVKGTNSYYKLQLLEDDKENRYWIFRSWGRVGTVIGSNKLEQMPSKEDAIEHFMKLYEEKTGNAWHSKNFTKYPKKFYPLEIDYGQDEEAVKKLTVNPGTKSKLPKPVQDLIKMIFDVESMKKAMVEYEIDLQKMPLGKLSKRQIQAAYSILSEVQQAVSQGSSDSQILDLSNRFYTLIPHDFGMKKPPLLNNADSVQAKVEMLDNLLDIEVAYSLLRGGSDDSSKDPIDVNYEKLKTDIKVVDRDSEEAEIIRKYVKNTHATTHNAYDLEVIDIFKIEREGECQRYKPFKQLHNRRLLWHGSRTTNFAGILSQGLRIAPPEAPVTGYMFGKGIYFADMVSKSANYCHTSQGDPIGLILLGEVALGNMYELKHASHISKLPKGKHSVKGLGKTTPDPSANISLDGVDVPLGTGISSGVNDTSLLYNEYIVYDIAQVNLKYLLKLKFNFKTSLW

For `Cl.NCCOc1c(-c2cccc(Cl)c2)[nH]c(=O)c2ccccc12` [Compound 48, 4-(2-Amino-ethoxy)-3-(3-chloro-phenyl)-2H-isoquinolin-1-one hydrochloride], in data set [1], the Kd (as a rule, the concentration at which binding is half-saturated) was less than 0.01 µM and the DC50 was less than 0.25 µM. Further, in data set [2], the affinity, expressed as Kd, was 0.51 µM and the DC50 amounted to 1.16 µM. The same compound yielded a DC50 in data set [3] of 0.33 µM. Moreover, the IC50 (as a rule, the midpoint of a concentration-inhibition curve) in data set [4] turned out to be 0.11 µM. For the same compound, in data set [5], the “F on AUC” value was found to be 27%; the clearance turned out to be 3.59 L/h/kg; the Vd was 4.1 L/kg; the AUC (usually the area under the concentration-time curve, a measure of exposure) turned out to be 2.39 µM·h. Moreover, the half-life in data set [5] was 1.11 h.
Turning to `COc1ccc(-c2[nH]c(=O)c3ccccc3c2OCCN)cc1.Cl` [Compound 24, 4-(2-Amino-ethoxy)-3-(4-methoxy-phenyl)-2H-isoquinolin-1-one hydrochloride], in data set [1], the Kd is less than 0.03 µM and the DC50 worked out at 0.32 µM. For the same compound, in data set [3], the DC50 came to 0.37 µM. Moreover, in data set [4], the midpoint of inhibition, the IC50, lay at 0.06 µM. Further, in data set [5], the “F on AUC” value is on record as 50%, the clearance stood at 2.47 L/h/kg, the Vd stood at 3 L/kg and the AUC was determined as 6.97 µM·h. Moreover, in data set [5], the half-life was 2.71 h.
In turn, `NCCOc1c(-c2cccc(Cl)c2)[nH]c(=O)c2cc(F)ccc12` [Compound 50, 4-(2-Amino-ethoxy)-3-(3-chloro-phenyl)-7-fluoro-2H-isoquinolin-1-one hydrochloride] came in with a Kd in data set [1] of less than 0.03 µM. Also, the DC50 was less than 0.25 µM in data set [1], 3.3 µM in data set [2] and 0.33 µM in data set [3]. The half-maximal inhibitory concentration (IC50) in data set [4] stood at 0.08 µM.
`NCCCOc1c(-c2ccccc2)[nH]c(=O)c2cc(F)ccc12` [Compound 86, 4-(3-aminopropoxy)-7-fluoro-3-phenylisoquinolin-1(2H)-one hydrochloride]: the figures for the DC50 in data set [1], in data set [2] and in data set [3] were less than 0.25 µM, 4.72 µM and 0.33 µM, respectively. This compound gave an IC50 in data set [4] of 0.54 µM.
Take `O=c1[nH]c(-c2ccc(O)cc2)c(OCCCN2CCCCC2)c2ccccc12` [Compound 27, 3-(4-Hydroxy-phenyl)-4-(3-piperidin-1-yl-propoxy)-2H-isoquinolin-1-one]: the figures for the Kd in data set [1] and in data set [2] were less than 0.03 µM and 0.33 µM, respectively. Also, the values for the DC50 in data set [1], in data set [2] and in data set [3] were less than 0.25 µM, 0.77 µM and 0.55 µM, respectively. This compound also had an IC50 in data set [4] of 0.25 µM.
Consider `NCCOc1c(-c2ccc(O)cc2)[nH]c(=O)c2ccccc12` [Compound 26, 4-(2-Amino-ethoxy)-3-(4-hydroxy-phenyl)-2H-isoquinolin-1-one], for which the results for the Kd in data set [1] and in data set [2] were less than 0.01 µM and 0.33 µM, respectively. The DC50 in data set [1] is less than 0.25 µM; in data set [2], 0.68 µM; in data set [3], 0.35 µM. Moreover, in data set [4], half-maximal inhibition (IC50) was put at 0.23 µM.
As to `NCCOc1c(-c2cccc(O)c2)[nH]c(=O)c2ccccc12` [Compound 32, 4-(2-Amino-ethoxy)-3-(3-hydroxy-phenyl)-2H-isoquinolin-1-one hydrochloride], the Kd in data set [1] was less than 0.03 µM; in data set [2], 0.45 µM. Also, the figures for the DC50 in data set [1], in data set [2] and in data set [3] were less than 0.25 µM, 0.79 µM and 0.28 µM, respectively. The compound further gave an IC50 in data set [4] of 0.2 µM.
Turning to `CCN(CC)CCOc1c(-c2ccccc2)[nH]c(=O)c2cc(F)ccc12` [Compound 88, 4-[2-(diethylamino)ethoxy]-7-fluoro-3-phenylisoquinolin-1(2H)-one trifluoroacetate], the DC50 is 1.59 µM in data set [1], 5.85 µM in data set [2] and greater than 10 µM in data set [3]. In addition, the half-maximal inhibitory concentration (IC50) in data set [4] came to 3.44 µM.
